3 compounds from ChEMBL document CHEMBL1201862, “PubChem BioAssay data set” (2004) can be followed below.

Among the test systems are A549; HCC 2998; HCT-116; HCT-15; HOP-92; IGROV-1; MOLT-4; NCI-H460; OVCAR-3; OVCAR-4; OVCAR-5; OVCAR-8; SF-295; SF-539; SK-OV-3; SNB-19; SW-620; UACC-257; UACC-62; UO-31.
Holding throughout (assay): NCI-60 cell line screen, 48 h

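Results reflect a 48-hour exposure of cells in 96-well plates to compound at five concentrations. Abbreviation: GI50, concentration required for 50% inhibition of growth.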 The source made the active and inactive calls. No stated cut-off is given here; in the data, active = GI50 up to about 1.1 µM and inactive = higher.

With `C/C(=C\c1ccccc1)C(=O)CCN1CCOCC1`, the GI50 in the assay on A549 was > 90.8 µM (inactive); in the assay on HCC 2998 it was 16.7 µM (inactive); with HCT-116, 28 µM (inactive); in the assay on HCT-15, 16.3 µM; in the assay with HOP-92, 20.4 µM (inactive); in the assay on IGROV-1 it was 27.4 µM (inactive). For the same compound, the GI50 in the assay on MOLT-4 was 19.1 µM (inactive); with NCI-H460, 62.1 µM (inactive); in the assay on OVCAR-3, 19.3 µM (inactive); in the assay on OVCAR-4, 18 µM (inactive); in the assay on OVCAR-5 it was 18.9 µM (inactive); with OVCAR-8, 20.5 µM (inactive). Besides, the GI50 with SF-295 was > 100 µM (inactive); in the assay on SF-539, 18.3 µM (inactive); with SK-OV-3, > 100 µM (inactive); in the assay with SNB-19, > 44.9 µM (inactive); in the assay with SW-620 it was 16.5 µM (inactive); in the assay on UACC-257 it was 15.6 µM (inactive). Also, the figures for the GI50 in the assay on UACC-62 and in the assay on UO-31 were 17.6 µM (inactive) and 20.8 µM (inactive), respectively.
Turning to `C[C@]12CC[C@H]3[C@@H](CC=C4C[C@@H](O)CC[C@@]43C)[C@@H]1C/C(=C\c1ccc([N+](=O)[O-])cc1)[C@@H]2O`, the GI50 in the assay on A549 was 10.4 µM (inactive); with HCC 2998, 11.7 µM (inactive); with HCT-116, 3.92 µM (inactive); with HCT-15, 10.9 µM; in the assay on HOP-92, 21.1 µM (inactive); with IGROV-1 it was 26 µM (inactive). Besides, the GI50 is 4.18 µM (inactive) in the assay on MOLT-4; 16.1 µM (inactive) in the assay with NCI-H460; 16.3 µM (inactive) in the assay with OVCAR-3; < 0.01 µM (active) in the assay on OVCAR-4; 25.2 µM (inactive) in the assay with OVCAR-5; 10.9 µM (inactive) in the assay on OVCAR-8. The GI50 was 16.8 µM (inactive) with SF-295; 17.1 µM (inactive) with SF-539; 13.7 µM (inactive) in the assay with SK-OV-3; 16.9 µM (inactive) in the assay on SNB-19; 26.7 µM (inactive) in the assay on SW-620; 16.3 µM (inactive) in the assay with UACC-257. The GI50 in the assay on UACC-62 was 10.6 µM (inactive); in the assay on UO-31 it was 8.93 µM (inactive).
Take `CC(C)OP(=O)(OC(C)C)c1ncn(-c2ccc([N+](=O)[O-])cc2)n1`: the GI50 was > 100 µM (inactive) with A549; 86.7 µM (inactive) with HCC 2998; > 100 µM (inactive) in the assay on HCT-116; greater than 100 µM in the assay with HCT-15; > 100 µM (inactive) with HOP-92; > 100 µM (inactive) in the assay with IGROV-1. The GI50 in the assay with MOLT-4, with NCI-H460, in the assay with OVCAR-3, in the assay with OVCAR-4, in the assay on OVCAR-5 and in the assay on OVCAR-8 was > 100 µM (inactive) throughout. The GI50 in the assay with SF-295, in the assay on SF-539, with SK-OV-3, in the assay with SNB-19, with SW-620 and with UACC-257 was > 100 µM (inactive) each time. Besides, the GI50 in the assay on UACC-62 and with UO-31 was > 100 µM (inactive) each time.
